PubChem BioAssay (NCI)
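1) Cells in 96-well plates. 2) Compound, 48 h, 5 concentrations. 3) Linear interpolation between surrounding doses. 4) Unreached endpoint = highest concentration. At the GI50, growth is halved. TGI: concentration producing complete growth inhibition.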

Assays:
Experiment in all cases: NCI-60 cell line screen, 48 h
786-0 renal = test system: 786-0 renal
A498 renal = test system: A498 renal
A549 NSCLC = test system: A549 NSCLC
ACHN renal = test system: ACHN renal
BT-549 breast = test system: BT-549 breast
CAKI-1 renal = test system: CAKI-1 renal
CCRF-CEM leukemia = test system: CCRF-CEM leukemia
COLO 205 colon = test system: COLO 205 colon
DU-145 prostate = test system: DU-145 prostate
HCC-2998 colon = test system: HCC-2998 colon
HCT-116 colon = test system: HCT-116 colon
HCT-15 colon = test system: HCT-15 colon
HL-60(TB) leukemia = test system: HL-60(TB) leukemia
HOP-62 NSCLC = test system: HOP-62 NSCLC
HOP-92 NSCLC = test system: HOP-92 NSCLC
HS 578T breast = test system: HS 578T breast
HT29 colon = test system: HT29 colon
IGROV1 ovarian = test system: IGROV1 ovarian
K-562 leukemia = test system: K-562 leukemia
KM12 colon = test system: KM12 colon
LOX IMVI melanoma = test system: LOX IMVI melanoma
M14 melanoma = test system: M14 melanoma
MALME-3M melanoma = test system: MALME-3M melanoma
MCF7 breast = test system: MCF7 breast
MDA-MB-435 = test system: MDA-MB-435
MOLT-4 leukemia = test system: MOLT-4 leukemia
NCI-H226 lung = test system: NCI-H226 lung
NCI-H23 lung = test system: NCI-H23 lung
NCI-H460 lung = test system: NCI-H460 lung
NCI-H522 lung = test system: NCI-H522 lung
NCI/ADR-RES ovarian = test system: NCI/ADR-RES ovarian
OVCAR-3 ovarian = test system: OVCAR-3 ovarian
OVCAR-4 ovarian = test system: OVCAR-4 ovarian
OVCAR-5 ovarian = test system: OVCAR-5 ovarian
OVCAR-8 ovarian = test system: OVCAR-8 ovarian
PC-3 prostate = test system: PC-3 prostate
RPMI-8226 leukemia = test system: RPMI-8226 leukemia
RXF 393 renal = test system: RXF 393 renal
SF-268 CNS = test system: SF-268 CNS
SF-295 CNS = test system: SF-295 CNS
SF-539 CNS = test system: SF-539 CNS
SK-MEL-2 melanoma = test system: SK-MEL-2 melanoma
SK-MEL-28 melanoma = test system: SK-MEL-28 melanoma
SK-MEL-5 melanoma = test system: SK-MEL-5 melanoma
SK-OV-3 ovarian = test system: SK-OV-3 ovarian
SN12C renal = test system: SN12C renal
SNB-19 CNS = test system: SNB-19 CNS
SNB-75 CNS = test system: SNB-75 CNS
SR leukemia = test system: SR leukemia
SW-620 colon = test system: SW-620 colon
TK-10 renal = test system: TK-10 renal
U251 CNS = test system: U251 CNS
UACC-257 melanoma = test system: UACC-257 melanoma
UACC-62 melanoma = test system: UACC-62 melanoma
UO-31 renal = test system: UO-31 renal

`Cc1cc(OCc2ccc(C(F)(F)F)cc2)c2c(c1)C(=O)C=C(NCCN1CCCC1)C2=O` showed a GI50 (786-0 renal) of 1600 nM, a TGI (786-0 renal) of 2990 nM and a GI50 (A498 renal) of 2690 nM. For the same compound, the TGI (A498 renal) was 12.8 µM, the GI50 (A549 NSCLC) was 2850 nM and the TGI (A549 NSCLC) was 9.68 µM. It also gave a GI50 (ACHN renal) of 1970 nM, a TGI (ACHN renal) of 4.08 µM and a GI50 (BT-549 breast) of 2050 nM. The TGI (BT-549 breast) was 5.36 µM, the GI50 (CAKI-1 renal) was 1790 nM and the TGI (CAKI-1 renal) was 4.83 µM. For the same compound, the GI50 (CCRF-CEM leukemia) was 2480 nM, the TGI (CCRF-CEM leukemia) was 7.12 µM and the GI50 (COLO 205 colon) was 1900 nM. For the same compound, the TGI (COLO 205 colon) was 3.72 µM, the GI50 (DU-145 prostate) was 6.15 µM and the TGI (DU-145 prostate) was 18.6 µM. The GI50 (HCC-2998 colon) was 1870 nM, the TGI (HCC-2998 colon) was 3.46 µM and the GI50 (HCT-116 colon) was 1850 nM. It also gave a TGI (HCT-116 colon) of 3.9 µM, a GI50 (HCT-15 colon) of 1950 nM and a TGI (HCT-15 colon) of 4.82 µM. For the same compound, the GI50 (HL-60(TB) leukemia) was 1710 nM, the TGI (HL-60(TB) leukemia) was 4.08 µM and the GI50 (HOP-62 NSCLC) was 3.44 µM. The TGI (HOP-62 NSCLC) was 13.2 µM, the GI50 (HOP-92 NSCLC) was 1960 nM and the TGI (HOP-92 NSCLC) was 7.38 µM. For the same compound, the GI50 (HS 578T breast) was 2020 nM, the TGI (HS 578T breast) was 5.23 µM and the GI50 (HT29 colon) was 1940 nM. The TGI (HT29 colon) was 5.01 µM, the GI50 (IGROV1 ovarian) was 6.69 µM and the TGI (IGROV1 ovarian) was 25.1 µM. The GI50 (K-562 leukemia) was 2410 nM, the TGI (K-562 leukemia) was 6.18 µM and the GI50 (KM12 colon) was 4.39 µM. It also gave a TGI (KM12 colon) of 15.4 µM, a GI50 (LOX IMVI melanoma) of 1920 nM and a TGI (LOX IMVI melanoma) of 3.55 µM. The GI50 (M14 melanoma) was 1880 nM, the TGI (M14 melanoma) was 3.56 µM and the GI50 (MALME-3M melanoma) was 2090 nM. For the same compound, the TGI (MALME-3M melanoma) was 3.95 µM, the GI50 (MCF7 breast) was 1670 nM and the TGI (MCF7 breast) was 3.56 µM. It also gave a GI50 (MDA-MB-435) of 1620 nM, a TGI (MDA-MB-435) of 3.02 µM and a GI50 (MOLT-4 leukemia) of 3.03 µM. For the same compound, the TGI (MOLT-4 leukemia) was 10.1 µM, the GI50 (NCI-H226 lung) was 14.6 µM and the TGI (NCI-H226 lung) was 35.2 µM. The GI50 (NCI-H23 lung) was 4.92 µM, the TGI (NCI-H23 lung) was 18.7 µM and the GI50 (NCI-H460 lung) was 1840 nM. For the same compound, the TGI (NCI-H460 lung) was 3.43 µM, the GI50 (NCI-H522 lung) was 2660 nM and the TGI (NCI-H522 lung) was 6.05 µM. It also gave a GI50 (NCI/ADR-RES ovarian) of 6.04 µM, a TGI (NCI/ADR-RES ovarian) of 20.5 µM and a GI50 (OVCAR-3 ovarian) of 2520 nM. For the same compound, the TGI (OVCAR-3 ovarian) was 6.47 µM, the GI50 (OVCAR-4 ovarian) was 4.01 µM and the TGI (OVCAR-4 ovarian) was 15.5 µM. The GI50 (OVCAR-5 ovarian) was 3.39 µM, the TGI (OVCAR-5 ovarian) was 12.3 µM and the GI50 (OVCAR-8 ovarian) was 3.25 µM. For the same compound, the TGI (OVCAR-8 ovarian) was 12.1 µM, the GI50 (PC-3 prostate) was 5.36 µM and the TGI (PC-3 prostate) was 19.5 µM. For the same compound, the GI50 (RPMI-8226 leukemia) was 1870 nM, the TGI (RPMI-8226 leukemia) was 4.36 µM and the GI50 (RXF 393 renal) was 1370 nM. For the same compound, the TGI (RXF 393 renal) was 2940 nM, the GI50 (SF-268 CNS) was 1970 nM and the TGI (SF-268 CNS) was 4.24 µM. For the same compound, the GI50 (SF-295 CNS) was 1880 nM, the TGI (SF-295 CNS) was 4 µM and the GI50 (SF-539 CNS) was 1680 nM. For the same compound, the TGI (SF-539 CNS) was 3.24 µM, the GI50 (SK-MEL-2 melanoma) was 1990 nM and the TGI (SK-MEL-2 melanoma) was 4.08 µM. For the same compound, the GI50 (SK-MEL-28 melanoma) was 1690 nM, the TGI (SK-MEL-28 melanoma) was 3.36 µM and the GI50 (SK-MEL-5 melanoma) was 1530 nM. It also gave a TGI (SK-MEL-5 melanoma) of 2880 nM, a GI50 (SK-OV-3 ovarian) of 3.45 µM and a TGI (SK-OV-3 ovarian) of 10.6 µM. It also gave a GI50 (SN12C renal) of 9.86 µM, a TGI (SN12C renal) of 28.3 µM and a GI50 (SNB-19 CNS) of 2460 nM. It also gave a TGI (SNB-19 CNS) of 6.2 µM, a GI50 (SNB-75 CNS) of 1490 nM and a TGI (SNB-75 CNS) of 2890 nM. It also gave a GI50 (SR leukemia) of 2600 nM, a TGI (SR leukemia) of 6.97 µM and a GI50 (SW-620 colon) of 1780 nM. It also gave a TGI (SW-620 colon) of 3.48 µM, a GI50 (TK-10 renal) of 6.85 µM and a TGI (TK-10 renal) of 22.2 µM. For the same compound, the GI50 (U251 CNS) was 1720 nM, the TGI (U251 CNS) was 3.45 µM and the GI50 (UACC-257 melanoma) was 1670 nM. It also gave a TGI (UACC-257 melanoma) of 3.27 µM, a GI50 (UACC-62 melanoma) of 1820 nM and a TGI (UACC-62 melanoma) of 3.51 µM. For the same compound, the GI50 (UO-31 renal) was 2190 nM and the TGI (UO-31 renal) was 4.93 µM.
